“And” between values parts separate entries of the source, which are not always exact repeats. Identical values can stand only once.
Assays:
Ter119+ erythroblasts = test: Ter119+ erythroblast expansion from murine Lin-Kit+ HSPCs (tet-shRPS19, RPL11+/lox); assay type: cell-based, mouse
Procedure: FIG. 8. NLK inhibition increases expansion of erythroid progenitors from human and murine models of DBA. Human cord blood CD34+ progenitors were transduced with lentivirus co-expressing GFP with shRNA against luciferase (shLuc), RPS19 (shRPS19) or RPL11 (shRPL11). After 36 hours cells GFP+ cells were differentiated in erythroid media in the presence or absence of 5 μM SD208 for 15 days. Cells were counted and assessed for cell surface expression of CD235. (a) The percentage of CD235+ cells was multiplied by the cell count and values were compared as a percentage of untreated controls. (b) Normalizing values relative to untreated RPS19-insufficiency progenitors facilitates direct comparison of erythropoiesis between untreated and SD208-treated cultures. (c) Approximately 3000 cells were removed from differentiating treatments at day 6 and NLK activity was assessed. Values were normalized to reflect a fold induction relative to untreated controls. (d) Lin-Kit+ hematopoietic progenitors were obtained from three mouse embryos expressing tetracycline-inducible shRNA against RPS19 at day E14.5 or three untreated mice, and thee mature RPL11^+/+ or three mature RPL11^+/lox mice treated with tamoxifen for eight weeks. Cells were grown in the presence or absence of doxycycline and/or SD208 for eight days prior to counting and assessing for ter119 surface expression. Values were expressed as a percentage relative to untreated controls (e) and directly comparing the effect of SD208 on erythropoiesis in ribosomal-insufficiency by expressing values relative to untreated ribosome-insufficient cultures (f). At day 5 approximately 3000 cells were assayed for NLK kinase assay (g). CD34+ HSPCs were isolated from three healthy control and three DBA patient mononuclear bone marrow aspirates by magnetic bead sorting and differentiated in the presence or absence of SD208 for 14 days. After counting the total cell population, the ratio of CD235+ erythroblasts was determined by flow cytometry and number of CD235+ erythroblasts calculated. This was expressed as a percentage of the average number of erythroid cells present in untreated healthy controls. (h) The direct effect of SD208 on erythroid expansion in DBA patient samples was calculated following normalization of untreated DBA patient samples as 1-fold, (i) At day five, 3000 cells from each of the differentiating cultures was analyzed for NLK activity by kinase assay and are expressed as a fold induction relative to untreated healthy controls.
FIG. 11. Metformin improves erythropoiesis in zebrafish model of DBA but not murine models. (Panel A, left portion) Murine fetal liver Kit+ progenitors expressing tetracycline-regulatable shRNA against RPS19 were cultured in the absence (grey columns) or presence (black columns) of doxycycline either alone, or treated with metformin. After 8 days, the number of ter119+ erythroblasts were calculated. (A right) RPL11+/lox mice were left untreated (grey columns) or treated (black columns) with tamoxifen for 5 weeks prior to isolation of bone marrow Lin-Kit+ progenitors. Progenitors were differentiated in the presence or absence of metformin for 8 days before assessing the number of Ter119+ erythroblasts. (Panel B) In conjunction with flow cytometry, cultures were subjected to qRT-PCR for NLK expression and (Panel C) kinase NLK kinase activity was assessed by in vitro kinase assay. […]

CD11b+ myeloid cells = test: CD11b+ myeloid expansion of differentiating human cord blood CD34+ progenitors; assay type: cell-based
Procedure: FIG. 7. SD208 increases erythroid expansion in human model of DBA through inhibition of NLK and not TGFβ. (a) Differentiating cord blood CD34+ progenitors were transduced with shRNA against luciferase or RPS19 and treated with inhibitors at working concentrations for TGFβ inhibition every three days. Cells were counted and CD235+ erythroid cells were assessed by flow cytometry after 15 days. (b) Prior to flow cytometry, 5000 cells per group were taken from differentiating cultures for NLK kinase assay. (c) CD34+ progenitors were transduced with shRNA against luciferase or RPS19 and non-targeting or siRNA against NLK. After sorting, samples were split into two groups and either treated with vehicle or SD208 every three days. After 15 days cells were counted and subject to flow cytometry to compare the expansion of maturing CD235+ erythroid (left panel) and CD11b+ myeloid cells (right panel). […] Cells were counted and CD235+ erythroid (D—upper) and CD11b+ myeloid cell (D—lower) percentages were determined by flow cytometry. The number of erythroid or myeloid cells is expressed as a percentage of the number of that lineage with no cytokine or drug treatment.
FIG. 9. […] Cells were counted and the percentage expressing CD235+ erythroid (left) and CD11b+ myeloid (right) was determined by flow cytometry. […] Values are expressed as a fold induction relative to untreated. (Panel C) Transduced and sorted CD34+ progenitors were cultured in methylcellulose in the presence or absence of metformin for 16 days and BFU-E erythroid (left) and CFU-GM myeloid (right) colonies scored. […] To directly compare the effect of metformin in each group, metformin-treated cultures were normalized to untreated cultures and are expressed as a fold induction of the untreated control. […]
Cells were incubated with human Fc receptor binding inhibitor (#14-9161-73; eBioscience) followed by primary antibodies CD235-APC (#306607; BioLegend) and CD11b-PE/Cy5 (#101209; BioLegend). Data were collected on a DxP10 flow cytometer (Cytek) and analyzed by using FlowJo Software, v.9.7.2.

Q: What does the source list for Fc1ccc(Cl)cc1-c1nc(Nc2ccncc2)c2nccnc2n1 [SD208]?
A: erythropoiesis, % of controls (Ter119+ erythroblasts; RPL11+/lox bone marrow HSPCs of three mice, SD208, 8 days, 31.2, 26.4, 18.6% without SD208): 57.3% and 56.8% and 50.3%; fold increase of erythropoiesis in response to SD208 (Ter119+ erythroblasts; murine RPL11-insufficiency): 2.29 fold; fold increase of erythropoiesis in response to SD208 (Ter119+ erythroblasts; murine RPS19-insufficiency): 3.88 fold; Ter119+ erythroblasts, % of populations differentiated without doxycycline (Ter119+ erythroblasts; tet-shRPS19 fetal liver HSPCs of three mice, doxycycline + SD208, 8 days, 24.3, 20.3, 18.5% without SD208): 83.2% and 81.1% and 76.6%

Q: For CC(C)=CCC[C@](C)(O[C@@H]1O[C@H](CO[C@@H]2O[C@H](CO)[C@@H](O)[C@H](O)[C@H]2O)[C@@H](O)[C@H](O)[C@H]1O)[C@H]1CC[C@]2(C)[C@@H]1[C@H](O)C[C@@H]1[C@@]3(C)CC[C@H](O[C@@H]4O[C@H](CO)[C@@H](O)[C@H](O)[C@H]4O[C@@H]4O[C@H](CO)[C@@H](O)[C@H](O)[C@H]4O)C(C)(C)[C@@H]3CC[C@]12C [ginsenoside Rb1], which “impact on CD11b+ myeloid expansion” value (CD11b+ myeloid cells; control or RPS19-insufficiency) is on record?
A: did not impact

Q: Which “rescue of Ter119+ erythroblast expansion” value (Ter119+ erythroblasts; murine RPS19- or RPL11-insufficiency, metformin, 8 days) does the source give for CN(C)C(=N)N=C(N)N [metformin] here?
A: did not rescue

Q: And the “influence on CD11b+ expansion” value (CD11b+ myeloid cells; 50 mM metformin)?
A: negligible influence
